Data on ten compounds can be found in ChEMBL document CHEMBL6182904, “Discovery of a novel molecular glue degrader targeting GSPT1/2 with a non-IMiD-based CRBN binder” (Eur J Med Chem, 2025).

Data set [1] addresses Protein cereblon (Homo sapiens) (UniProt Q96SW2). Put plainly: Binding affinity to CRBN (unknown origin) at 10 uM relative to control.
Data set [2] concerns the target T1, Protein cereblon/Eukaryotic peptide chain release factor GTP-binding subunit ERF3A (Homo sapiens, UniProt Q96SW2+P15170). Put plainly: Molecular glue activity at human full length wild type CRBN/Hibit tagged GSPT1 in human Jurkat cells assessed as induction of GSPT1 degradation. The data set is classed as cell-based.
Target sequence in this assay (Q96SW2 whole entry): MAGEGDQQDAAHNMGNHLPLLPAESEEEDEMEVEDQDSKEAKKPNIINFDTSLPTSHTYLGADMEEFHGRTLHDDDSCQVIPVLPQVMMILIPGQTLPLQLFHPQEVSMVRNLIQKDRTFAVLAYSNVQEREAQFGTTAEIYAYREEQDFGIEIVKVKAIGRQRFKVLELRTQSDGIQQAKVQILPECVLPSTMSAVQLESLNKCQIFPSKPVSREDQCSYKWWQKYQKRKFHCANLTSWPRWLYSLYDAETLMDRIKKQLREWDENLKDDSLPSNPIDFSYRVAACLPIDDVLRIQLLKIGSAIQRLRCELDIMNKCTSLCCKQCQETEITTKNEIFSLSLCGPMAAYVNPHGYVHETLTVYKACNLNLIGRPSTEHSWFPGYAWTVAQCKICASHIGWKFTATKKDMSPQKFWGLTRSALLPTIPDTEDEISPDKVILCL
Target sequence in this assay (P15170 whole entry): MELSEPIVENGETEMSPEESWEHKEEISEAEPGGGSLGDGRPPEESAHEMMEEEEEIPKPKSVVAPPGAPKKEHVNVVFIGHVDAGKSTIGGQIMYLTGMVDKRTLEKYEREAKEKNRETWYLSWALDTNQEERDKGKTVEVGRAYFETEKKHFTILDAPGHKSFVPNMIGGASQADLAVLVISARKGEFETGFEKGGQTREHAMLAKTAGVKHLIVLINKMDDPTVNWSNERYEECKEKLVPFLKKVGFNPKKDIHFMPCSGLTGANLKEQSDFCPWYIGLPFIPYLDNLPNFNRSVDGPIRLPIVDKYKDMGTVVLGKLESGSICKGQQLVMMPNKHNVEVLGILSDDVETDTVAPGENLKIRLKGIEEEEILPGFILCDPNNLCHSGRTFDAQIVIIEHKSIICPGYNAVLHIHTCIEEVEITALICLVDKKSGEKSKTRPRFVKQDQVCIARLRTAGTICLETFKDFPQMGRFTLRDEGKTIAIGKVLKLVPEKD
The subject of data set [3] is Jurkat. Put plainly: Cytotoxicity against human Jurkat cells harbouring cullin4 knockdown assessed as cell growth inhibition measured after 72 hrs by CellTiter-Glo assay. In kind it is functional.
The subject of the next data set is MCF7. Put plainly: Selectivity ratio of GI50 for cytotoxicity against human MCF7 cells assessed as cell growth inhibition measured after 72 hrs in presence of MLN4924 to GI50 for cytotoxicity against human MCF7 cells assessed as cell growth inhibition measured after 72 hrs. The data set is classed as functional.
Data set [4] addresses Protein cereblon/Eukaryotic peptide chain release factor GTP-binding subunit ERF3A (Mus musculus) (UniProt Q8C7D2+Q8R050). Put plainly: Molecular glue activity at Wild type CRBN/GSPT1 in mouse MEF cells harbouring CRBN knockout assessed as induction of GSPT1 degradation at 0.1 to 10 uM incubated for 24 hrs by Western blot analysis. In kind it is cell-based. As to conditions: dose 0.1-10 µM.

The nature of data set [5]: Selectivity ratio of GI50 for cytotoxicity against human MIA PaCa-2 cells assessed as cell growth inhibition measured after 72 hrs in presence of MLN4924 to GI50 for cytotoxicity against human MIA PaCa-2 cells assessed as cell growth inhibition measured after 72 hrs. The data set is classed as functional.
In data set [6] the target is T1, Protein cereblon/Eukaryotic peptide chain release factor GTP-binding subunit ERF3A. The data set is described as follows: Molecular glue activity at full length wild type CRBN/HiBit tagged GSPT1 in human Jurkat cells harbouring wildtype CRBN assessed as induction of GSPT1 degradation at 0.1 to 10 uM incubated for 6 hrs by Western blot analysis. As to conditions: dose 0.1-10 µM. The data set is classed as cell-based.
Target sequence in this assay (P15170 whole entry, looked up): as the sequence (P15170 whole entry) above
Target sequence in this assay (Q96SW2 whole entry, looked up): as the sequence (Q96SW2 whole entry) above

The target of data set [7] is Protein cereblon/Eukaryotic peptide chain release factor GTP-binding subunit ERF3A (Homo sapiens, UniProt P15170+Q96SW2). Put plainly: Molecular glue activity at LgBiT tagged CRBN/SmBiT tagged GSPT1 (unknown origin) transfected with HEK293T cells assessed as ternary complex formation incubated for 1 hr by Nano-Glo luminescence analysis. In kind it is cell-based.
The target in data set [8] is T1, Protein cereblon/Eukaryotic peptide chain release factor GTP-binding subunit ERF3A. The data set is described as follows: Molecular glue activity at full length human wild type CRBN/HiBit tagged GSPT1 in human Jurkat cells assessed as induction of GSPT1 degradation at 0.1 to 10 uM incubated for 6 hrs in presence of bortezomib by Western blot analysis. In kind it is cell-based. As to conditions: dose 0.1-10 µM.
Target sequence in this assay (P15170 whole entry, looked up): as the sequence (P15170 whole entry) above
Target sequence in this assay (Q96SW2 whole entry, looked up): as the sequence (Q96SW2 whole entry) above

Data set [9] in a line: Selectivity ratio of GI50 for cytotoxicity against human HCT-116 cells assessed as cell growth inhibition measured after 72 hrs in presence of MLN4924 to GI50 for cytotoxicity against human HCT-116 cells assessed as cell growth inhibition measured after 72 hrs. The data set is classed as functional.
The target in data set [10] is T1, Protein cereblon/Eukaryotic peptide chain release factor GTP-binding subunit ERF3A. The data set is described as follows: Molecular glue activity at full length human wild type CRBN/HiBit tagged GSPT1 in HEK293T cells assessed as induction of GSPT1 degradation at 1 uM incubated for 12 hrs by Western blot analysis. In kind it is cell-based.
Target sequence in this assay (P15170 whole entry, looked up): as the sequence (P15170 whole entry) above
Target sequence in this assay (Q96SW2 whole entry, looked up): as the sequence (Q96SW2 whole entry) above
For data set [11] the target is unchanged. Put plainly: Molecular glue activity at full length human wild type CRBN/HiBit tagged GSPT1 in HEK293T cells assessed as induction of GSPT1 degradation incubated for 6 hrs by Nano-Glo luminescence assay. In kind it is cell-based.
Target sequence in this assay (Q96SW2 whole entry): as above
Target sequence in this assay (P15170 whole entry): as the sequence (P15170 whole entry) above
The target is the same in data set [12]. Put plainly: Molecular glue activity at full length human wild type CRBN/HiBit tagged GSPT1 in human Jurkat cells assessed as induction of GSPT1 degradation incubated for 6 hrs by Western blot analysis. The data set is classed as cell-based.
Target sequence in this assay (Q96SW2 whole entry): as the sequence (Q96SW2 whole entry) above
Target sequence in this assay (P15170 whole entry): as the sequence (P15170 whole entry) above
The next data set deals with MEF. The data set is described as follows: Molecular glue activity at CRBN W386A mutant/GSPT1 in mouse MEF cells harbouring CRBN knockout assessed as induction of GSPT1 degradation at 0.1 to 10 uM incubated for 24 hrs by Western blot analysis. As to conditions: dose 0.1-10 µM. In kind it is cell-based.
The target in data set [13] is T1, Protein cereblon/Eukaryotic peptide chain release factor GTP-binding subunit ERF3A. The data set is described as follows: Molecular glue activity at full length human wild type CRBN/HiBit tagged GSPT1 in HEK293T cells assessed as induction of GSPT1 degradation at 0.1 to 10 uM incubated for 6 hrs by Western blot analysis. In kind it is cell-based. As to conditions: dose 0.1-10 µM.
Target sequence in this assay (P15170 whole entry, looked up): as the sequence (P15170 whole entry) above
Target sequence in this assay (Q96SW2 whole entry, looked up): as the sequence (Q96SW2 whole entry) above

The target of data set [14] is T2, Protein cereblon/Eukaryotic peptide chain release factor GTP-binding subunit ERF3B (Homo sapiens, UniProt Q96SW2+Q8IYD1). The data set is described as follows: Molecular glue activity at full length human wild type CRBN/GSPT2 in human Jurkat cells assessed as induction of GSPT2 degradation incubated for 6 hrs by Western blot analysis. In kind it is cell-based.

For data set [15], the target named is T1, Protein cereblon/Eukaryotic peptide chain release factor GTP-binding subunit ERF3A. The data set is described as follows: Molecular glue activity at full length human wild type CRBN/HiBit tagged GSPT1 in human KG-1 cells assessed as induction of GSPT1 degradation at 0.1 to 10 uM incubated for 6 hrs by Western blot analysis. In kind it is cell-based. As to conditions: dose 0.1-10 µM.
Target sequence in this assay (P15170 whole entry, looked up): as the sequence (P15170 whole entry) above
Target sequence in this assay (Q96SW2 whole entry, looked up): as the sequence (Q96SW2 whole entry) above

Data set [16] concerns the target T2, Protein cereblon/Eukaryotic peptide chain release factor GTP-binding subunit ERF3B. Put plainly: Molecular glue activity at human full length wildtype CRBN/HiBiT tagged GSPT2 in human MIA PaCa-2 cells transfected with CRBN-TurboID-V5 assessed as ternary complex formation at 1 uM preincubated for 4 hrs followed by bortezomib addition and measured after 2 hrs by TurboID analysis. The data set is classed as cell-based. As to conditions: time 6.0 hrs.
Target sequence in this assay (Q8IYD1 whole entry, looked up): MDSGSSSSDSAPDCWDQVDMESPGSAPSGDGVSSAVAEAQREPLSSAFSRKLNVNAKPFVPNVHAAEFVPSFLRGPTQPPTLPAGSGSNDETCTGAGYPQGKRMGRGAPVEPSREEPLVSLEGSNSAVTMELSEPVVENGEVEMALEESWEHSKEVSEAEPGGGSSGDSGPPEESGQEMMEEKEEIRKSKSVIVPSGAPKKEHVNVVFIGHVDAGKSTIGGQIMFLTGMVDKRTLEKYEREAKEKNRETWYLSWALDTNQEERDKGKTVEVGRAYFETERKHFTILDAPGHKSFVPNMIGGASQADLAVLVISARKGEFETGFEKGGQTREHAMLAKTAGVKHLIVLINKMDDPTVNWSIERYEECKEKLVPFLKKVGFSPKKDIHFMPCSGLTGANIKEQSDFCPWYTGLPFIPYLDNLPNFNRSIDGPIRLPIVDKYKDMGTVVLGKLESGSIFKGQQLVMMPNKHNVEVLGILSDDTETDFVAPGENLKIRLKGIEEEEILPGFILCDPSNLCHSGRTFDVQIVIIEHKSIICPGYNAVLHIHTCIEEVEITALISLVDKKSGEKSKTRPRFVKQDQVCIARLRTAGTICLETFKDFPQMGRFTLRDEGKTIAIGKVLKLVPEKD
Target sequence in this assay (Q96SW2 whole entry, looked up): as the sequence (Q96SW2 whole entry) above

Data set [17] has the same target. Put plainly: Molecular glue activity at full length human wild type CRBN/HiBit tagged GSPT2 in human Jurkat cells assessed as induction of GSPT2 degradation at 0.1 to 10 uM incubated for 6 hrs in presence of bortezomib by Western blot analysis. In kind it is cell-based. As to conditions: dose 0.1-10 µM.
Target sequence in this assay (Q8IYD1 whole entry, looked up): as the sequence (Q8IYD1 whole entry, looked up) above
Target sequence in this assay (Q96SW2 whole entry, looked up): as the sequence (Q96SW2 whole entry) above
Data set [18] concerns the target Protein cereblon (Homo sapiens) (UniProt Q96SW2). The data set is described as follows: Binding affinity to CRBN in HEK293T cells harbouring DDB1/Nanoluc assessed as decrease in BRET ratio incubated for 2 hrs NanoBRET engagement assay. The data set is classed as cell-based. As to conditions: dose 1-30 µM.
In data set [19] the test system is Jurkat. The data set is described as follows: Cytotoxicity against human Jurkat cells assessed as cell growth inhibition measured after 72 hrs by CellTiter-Glo assay. In kind it is functional.
A short description of data set [20]: Cytotoxicity against human Jurkat cells assessed as cell growth inhibition measured after 72 hrs in presence of MLN4924 by CellTiter-Glo assay. In kind it is toxicity, cell-based.
The nature of data set [21]: Cytotoxicity against HEK293T cells assessed as cell growth inhibition measured after 72 hrs in presence of MLN4924 by CellTiter-Glo assay. As to conditions: human. The data set is classed as toxicity, cell-based, HEK-293T.
Data set [22] addresses T1, Protein cereblon/Eukaryotic peptide chain release factor GTP-binding subunit ERF3A. The data set is described as follows: Molecular glue activity at full length human wild type CRBN/HiBit tagged GSPT1 in HEK293T cells assessed as induction of GSPT1 degradation at 10 uM incubated for 6 hrs by Nano-Glo luminescence assay relative to control. The data set is classed as cell-based.
Target sequence in this assay (P15170 whole entry, looked up): as the sequence (P15170 whole entry) above
Target sequence in this assay (Q96SW2 whole entry, looked up): as the sequence (Q96SW2 whole entry) above

The target is the same in data set [23]. The data set is described as follows: Molecular glue activity at human full length wildtype CRBN/HiBiT tagged GSPT1 in human MIA PaCa-2 cells transfected with CRBN-TurboID-V5 assessed as ternary complex formation at 1 uM preincubated for 4 hrs followed by bortezomib addition and measured after 2 hrs by TurboID analysis. In kind it is cell-based. As to conditions: time 6.0 hrs.

The target is the same in data set [24]. Put plainly: Molecular glue activity at full length wild type human CRBN/HiBit tagged GSPT1 in human Jurkat cells harbouring cullin4 knockdown assessed as induction of GSPT1 degradation at 1 uM incubated for 6 hrs by Western blot analysis. The data set is classed as cell-based.
Data set [25] addresses T2, Protein cereblon/Eukaryotic peptide chain release factor GTP-binding subunit ERF3B. Put plainly: Molecular glue activity at full length human wild type CRBN/GSPT2 in human Jurkat cells assessed as induction of GSPT2 degradation at 3 uM incubated for 6 hrs by Western blot analysis. In kind it is cell-based.
Target sequence in this assay (Q8IYD1 whole entry, looked up): as the sequence (Q8IYD1 whole entry, looked up) above
Target sequence in this assay (Q96SW2 whole entry, looked up): as the sequence (Q96SW2 whole entry) above
Data set [26] shares this target. The data set is described as follows: Molecular glue activity at full length wild type CRBN/HiBit tagged GSPT2 in human Jurkat cells harbouring wildtype CRBN assessed as induction of GSPT2 degradation at 0.1 to 10 uM incubated for 6 hrs by Western blot analysis. The data set is classed as cell-based. As to conditions: dose 0.1-10 µM.
Target sequence in this assay (Q8IYD1 whole entry, looked up): as the sequence (Q8IYD1 whole entry, looked up) above
Target sequence in this assay (Q96SW2 whole entry, looked up): as the sequence (Q96SW2 whole entry) above
Data set [27] deals with T1, Protein cereblon/Eukaryotic peptide chain release factor GTP-binding subunit ERF3A. Put plainly: Molecular glue activity at full length human wild type CRBN/HiBit tagged GSPT1 in HEK293T cells assessed as induction of GSPT1 degradation at 10 uM incubated for 6 hrs in presence of pomalidomide by Nano-Glo luminescence assay relative to control. In kind it is cell-based.

Data set [28] is described as follows: Cytotoxicity against HEK293T cells assessed as cell growth inhibition measured after 72 hrs by CellTiter-Glo assay. The data set is classed as toxicity, cell-based, HEK-293T. As to conditions: human.
Data set [29] deals with T1, Protein cereblon/Eukaryotic peptide chain release factor GTP-binding subunit ERF3A. Put plainly: Molecular glue activity at full length wild type human CRBN/HiBit tagged GSPT1 in human Jurkat cells assessed as induction of GSPT1 degradation at 3 uM incubated for 6 hrs by Western blot analysis. In kind it is cell-based.
Data set [30] shares this target. Put plainly: Molecular glue activity at full length wild type CRBN/HiBit tagged GSPT1 in human Jurkat cells harbouring CRBN knockout assessed as induction of GSPT1 degradation at 0.1 to 10 uM incubated for 6 hrs by Western blot analysis. The data set is classed as cell-based. As to conditions: dose 0.1-10 µM.
The target of data set [31] is T2, Protein cereblon/Eukaryotic peptide chain release factor GTP-binding subunit ERF3B. Put plainly: Molecular glue activity at full length wild type CRBN/HiBit tagged GSPT2 in human Jurkat cells harbouring CRBN knockout assessed as induction of GSPT2 degradation at 0.1 to 10 uM incubated for 6 hrs by Western blot analysis. In kind it is cell-based. As to conditions: dose 0.1-10 µM.
Target sequence in this assay (Q8IYD1 whole entry, looked up): as the sequence (Q8IYD1 whole entry, looked up) above
Target sequence in this assay (Q96SW2 whole entry, looked up): as the sequence (Q96SW2 whole entry) above

For data set [32], the target named is T1, Protein cereblon/Eukaryotic peptide chain release factor GTP-binding subunit ERF3A. Put plainly: Molecular glue activity at full length human wild type CRBN/HiBit tagged GSPT1 in HEK293T cells assessed as induction of GSPT1 degradation incubated for 6 hrs in presence of pomalidomide by Nano-Glo luminescence assay. The data set is classed as cell-based.
Target sequence in this assay (Q96SW2 whole entry): as above
Target sequence in this assay (P15170 whole entry): as the sequence (P15170 whole entry) above

Activity calls are given as the source filed them. The rule behind the calls is not given here.

Sequence of Protein cereblon (Homo sapiens) (Q96SW2 whole entry): as the sequence (Q96SW2 whole entry) above

Consider `COC(=O)c1nc(NC(=O)Cn2cnccc2=O)sc1CCc1ccccc1`, for which, in data set [1], the Activity was 13.8%. Moreover, in data set [2], the half-maximal degradation concentration (DC50) worked out at 4 µM.

On to `COC(=O)c1nc(NC(=O)Cn2cncc(C)c2=O)sc1CCc1ccccc1`, for which the outcome in [1] was inactive. For the same compound, the DC50 in [2] is > 10 µM.

As to `COC(=O)c1nc(NC(=O)Cn2cnc(C)c(C)c2=O)sc1CCc1ccccc1`, the figures for the GI50 with Jurkat [3] and in the data set on Jurkat [19] were 3.2 µM and 0.5 µM, respectively. For the same compound, the RatioGI50 (in the data set with MCF7; in data set [5]; in [9]) was 3 each time. The result in data set [4], in data set [6], in data set [10], in data set [13], in data set [15] and in [25] was Active. Besides, the result in data set [26] and in data set [29] was Active. Besides, the EC50 in [7] is 11.4 µM. The result (in data set [8]; in the data set with MEF; in [16]; in data set [17]; in [23]; in [24]) was inactive. For the same compound, the outcome in data set [30] and in [31] was inactive. For the same compound, the DC50 in [11] turned out to be 0.2 µM; in data set [12], 0.127 µM; in data set [14], 0.0422 µM; in [32], 45 µM; in [2] it was 1.2 µM. The values for the Activity result in data set [18] and in data set [1] were “Dose-dependent-effect” and 47.6%, respectively. Besides, the GI50 at 72 h worked out at 1.4 µM in data set [20], 18.4 µM in data set [21] and 0.8 µM in data set [28]. The Emax stood at 98.2% in [22] and 31.7% in data set [27].

As to `COC(=O)c1nc(NC(=O)Cn2cnc(C)cc2=O)sc1CCc1ccccc1`, the result in data set [1] was inactive. In addition, the 50% degradation concentration (DC50) in [2] was > 10 µM.

`COC(=O)c1nc(NC(=O)Cn2cnc3c(c2=O)CCC3)sc1CCc1ccccc1`: the Activity in [1] is -14.4%. Moreover, the half-maximal degradation concentration (DC50) in data set [2] is > 10 µM.

As to `COC(=O)c1nc(NC(=O)Cn2cnc(C)c(C)c2=O)sc1Cc1ccccc1`, in data set [1], the Activity is -5.6%. The DC50 in [2] was > 10 µM.

As to `COC(=O)c1nc(NC(=O)Cn2cnc(C)c(C)c2=O)sc1CCc1ccc(Cl)cc1`, the outcome in data set [1] was inactive. The DC50 in data set [2] was > 10 µM.

Turning to `Cc1ccc(NC(=O)NCc2ccc3c(c2)CN(C2CCC(=O)NC2=O)C3=O)cc1Cl` (stereo unspecified), the EC50 in data set [7] was found to be 0.1 µM.

Turning to `CNC(=O)c1nc(NC(=O)Cn2cnc(C)c(C)c2=O)sc1CCc1ccccc1`, the Activity in data set [1] is -9%. In addition, the DC50 in data set [2] was > 10 µM.

With `COC(=O)c1nc(NC(=O)Cn2cnc(C)c(C)c2=O)sc1CCc1cccc(Cl)c1`, the outcome in data set [1] was inactive. In [2], the 50% degradation concentration (DC50) was > 10 µM.
